Test results reported in ChEMBL document CHEMBL6182947, “Discovery of Phloroglucinol Derivatives as a New Type of Nonnucleoside Inhibitors with Anti-herpes Simplex Virus Type 1 Activity” (J Med Chem, 2025).

How the values were obtained:
[1] = tested on: Human alphaherpesvirus 1; experiment: Antiviral activity against HSV1 infected in African green monkey Vero cells assessed as reduction of virus-induced cytopathic effect measured after 48 hrs of incubation; format: functional, organism-based; conditions: Human alphaherpesvirus 1, Vero
[2] = Cytotoxicity against African green monkey Vero cells assessed as cell viability measured after 24 hrs incubation by MTT assay; format: toxicity, cell-based; conditions: chlorocebus sabaeus
[3] = Selectivity index, ratio of CC50 for Cytotoxicity against african green monkey Vero cells to IC50 for Antiviral activity against HSV1 infected in African green monkey Vero cells; format: toxicity, cell-based; conditions: read-out: Selectivity Index

| SMILES | IC50 [1] [µM] | CC50 at 24 h [2] [µM] | selectivity ratio [3] |
| --- | --- | --- | --- |
| CC(C)CC1C2=C(Oc3c(C(=O)C4CCC4)c(O)cc(O)c31)C(C)(C)C(=O)C(C)(C)C2=O (centres undefined) | 5.5 | 10 | < 2.72 |
| CC(C)CC(=O)c1c(O)cc2c(c1O)[C@H](CC(C)C)C1=C(O2)C(C)(C)[C@@H](O)C(C)(C)C1=O | 2.5 | 7.5 | 3 |
| CC(C)CC(=O)c1c(O)cc2c(c1O)[C@@H](CC(C)C)C1=C(O2)C(C)(C)C(=O)C(C)(C)C1=O | 0.41 | 7.5 | 18.3 |
| CC(C)CC(=O)c1c(O)cc2c(c1O)[C@H](CC(C)C)C1=C(O2)C(C)(C)C(=O)C(C)(C)C1=O | 0.39 | 7.28 | 18.7 |
| CC(C)CC(=O)c1c(O)cc2c(c1O)C(CC(C)C)C1=C(CCC(C)(C)C1=O)O2 (centres undefined) | 2.2 | 16 | 7.27 |
| CCC1C2=C(Oc3c(C(=O)CC(C)C)c(O)cc(O)c31)C(C)(C)C(=O)C(C)(C)C2=O (racemic) | 1.5 | 10 | < 10 |
| CC(C)CC(=O)c1c(O)cc2c(c1O)C(C)C1=C(O2)C(C)(C)C(=O)C(C)(C)C1=O (racemic) | 0.8 | 10 | < 18.8 |
| CC(C)CC(=O)c1c(O)cc(O)c2c1OC1=C(C(=O)C(C)(C)C(=O)C1(C)C)C2c1ccccc1 (racemic) | 2.5 | 12.8 | 5.11 |
| CC(C)C1C2=C(Oc3cc(O)cc(O)c31)C(C)(C)C(=O)C(C)(C)C2=O (centres undefined) | 9 | 20 | 2.22 |
| CC1(C)C(=O)C2=C(Oc3cc(O)cc(O)c3C2c2ccccc2)C(C)(C)C1=O (centres undefined) | 8 | 18 | 2.25 |
| COc1cc2c(c(OC)c1C(=O)CC(C)C)C(CC(C)C)C1=C(O2)C(C)(C)C(=O)C(C)(C)C1=O (centres undefined) | 50 | > 100 | – |
| CC(C)CC1C2=C(Oc3cc(O)c(C(=O)c4ccccc4)c(O)c31)C(C)(C)C(=O)C(C)(C)C2=O (centres undefined) | 2.5 | 10 | 4 |
| CC(C)CC(=O)c1c(O)cc(O)c2c1OC1=C(C(=O)C(C)(C)C(=O)C1(C)C)C2C(C)C (racemic) | 3.75 | 10 | < 4 |

Further lines, with some results ahead:

| IC50 [1] [µM] | SMILES | CC50 at 24 h [2] [µM] | selectivity ratio [3] |
| --- | --- | --- | --- |
| 2.25 | CC(C)CC(=O)c1c(O)cc(O)c2c1OC1=C(C(=O)C(C)(C)C(=O)C1(C)C)C2CC(C)C (racemic) | 10 | 4.44 |
| 2.5 | CC(C)CC(=O)c1c(O)c(C=O)c2c(c1O)C(CC(C)C)C1=C(O2)C(C)(C)C(=O)C(C)(C)C1=O (centres undefined) | 9 | 3.6 |
| 3.5 | CC(C)CC1C2=C(Oc3c(C(=O)C(C)C)c(O)cc(O)c31)C(C)(C)C(=O)C(C)(C)C2=O (racemic) | 12.8 | 3.65 |
| 0.78 | CC(C)C(=O)c1c(O)cc2c(c1O)C(C(C)C)C1=C(O2)C(C)(C)C(=O)C(C)(C)C1=O (racemic) | 20.9 | 26.8 |
| 7 | CC(C)CC1C2=C(Oc3cc(O)cc(O)c31)C(C)(C)C(=O)C(C)(C)C2=O (centres undefined) | 13 | 1.86 |
| > 100 | COc1cc2c(c(O)c1C(=O)CC(C)C)C(CC(C)C)C1=C(O2)C(C)(C)C(=O)C(C)(C)C1=O (centres undefined) | > 100 | – |
| > 100 | CC(C)CC(O)c1c(O)cc2c(c1O)C(CC(C)C)C1=C(O2)C(C)(C)C(=O)C(C)(C)C1=O (centres undefined) | > 100 | – |
| 10 | CC(=O)c1c(O)cc(O)c2c1OC1=C(C(=O)C(C)(C)C(=O)C1(C)C)C2CC(C)C (centres undefined) | > 100 | > 10 |
| 50 | CC(C)CC(=O)c1ccc2c(c1O)C(CC(C)C)C1=C(O2)C(C)(C)C(=O)C(C)(C)C1=O (centres undefined) | > 100 | – |
| 50 | COc1c(C(=O)CC(C)C)c(O)cc2c1C(CC(C)C)C1=C(O2)C(C)(C)C(=O)C(C)(C)C1=O (centres undefined) | > 100 | – |
